Patent publication US12109305B2, “Materials architecture for gastric residence systems” (Lyndra Therapeutics, Inc., priority 2016, dated 2024)

Test: Degradation of time-dependent coupling polymer components in simulated gastric fluid
Assay type: physicochemical
Settings: seven days
From the text: Additional preferred polymers for use as coupling polymers are time-dependent polymers, that is, polymers that degrade in a time-dependent manner in the gastric environment.

CC(=O)OCC(COC(C)=O)OC(C)=O [triacetin]
degradation / retention of strength in simulated gastric fluid: degrades in a time-dependent manner
